{"source": "patent US20060110376A1", "about": "“MDA-7 and free radicals in the treatment of cancer” (priority 2002, published 2006)", "key": {"SKOV3 cells": {"tested_on": "SKOV3 cells", "assay": "MTT assay with 4-HPR", "assay_type": "cell-based, human", "conditions": "500 nM 4-HPR; MTT 96 h", "method": "FIG. 35. Effect of transduction by Ad.mda-7 on the growth of the ovarian cancer cell line SKOV3 in the presence or absence of N-(4-hydroxyphenyl) retinamide (4-HPR).\nSKOV3 cells (ATCC, Manassas Va.) were plated at 10,000 per well in 24 well plates. 24 h after plating cells were infected with either control virus or Ad.mda-7 virus at increasing multiplicities of viral infection. 24 h after infection, cells were treated with 500 nM 4-HPR. 96 h after 4-HPR addition, cell numbers were determined using MTT assays as described above."}, "[1]": {"tested_on": "prostate carcinoma cell lines (DU-145, PC-3, LNCaP)", "assay": "MTT viability assay", "assay_type": "cell-based, human", "method": "(§1) Cells were seeded in 96-well plates, pretreated with NAC (5 mM) or Tiron (1 mM) for 2 h and infected with Ad.mda-7. Forty eight hours later, viability was assessed by MTT assay. […] Cells were seeded in 96-well plates, infected with Ad.mda-7 and treated with As2O3 (10 μM) or NSC656240 (400 nM). Forty eight h later, viability was assessed by MTT assay. Panel C. […] After treatment, cells were stained using DCF-DA and analyzed using flow cytometry. […] After treatment, cells were washed and stained with Annexin V-FITC conjugate. Late apoptotic and necrotic cells were excluded using PI staining. Results are the mean of three independent experiments performed with triplicate samples±S.E.\n[…] Cellular viability was assessed by MTT assay 48 h after infection (Panel A). Mitochondrial membrane potential (DiOC6(3) staining, Panel B) and apoptotic changes (Annexin V staining, Panel C) were assessed 18 h (LNCaP cells) and 24 h (DU-145, PC-3 and P69 cells) after infection.\nMTT Viability Assays. This method was performed as described (Lebedeva et al., 2000, Cancer Research 60:6052-6060). […] At the indicated time points, medium was removed, and fresh medium containing 0.5 mg/ml MTT was added to each well. The cells were incubated at 37° C. for 4 h and then an equal volume of solubilization solution (0.01N HCl in 10% SDS) was added to each well and mixed thoroughly. The optical density from the plates was read on a BioRad Microplate Reader Model 550 at 595 nm."}, "[2]": {"tested_on": "prostate cancer cell lines (DU-145, PC-3, LNCaP)", "assay": "Mitochondrial ΔΨm (DiOC6(3)) and ROS time course", "assay_type": "cell-based, human", "conditions": "CsA, BA pretreatment; 18 h (LNCaP), 24 h (DU-145, PC-3)", "method": "(§2) FIG. 33A-C. […] Prostate cancer and normal immortalized P69 cells were pretreated with inhibitors of MPT CsA (100 nM) or BA (50 μM), with the enhancer of MPT PK11195 (50 μM) or with the pan-caspase inhibitor z-VAD.fmk (50 μM) for 2 h following infection with Ad.vec or Ad.mda-7. Cellular viability was assessed by MTT assay 48 h after infection (Panel A). Mitochondrial membrane potential (DiOC6(3) staining, Panel B) and apoptotic changes (Annexin V staining, Panel C) were assessed 18 h (LNCaP cells) and 24 h (DU-145, PC-3 and P69 cells) after infection."}, "prostate carcinoma cells": {"tested_on": "prostate carcinoma cells", "assay": "ROS production (DCF fluorescence, flow cytometry)", "assay_type": "cell-based, human", "conditions": "treated with NSC656240 or As2O3", "method": "as §1"}, "[3]": {"tested_on": "pancreatic carcinoma cells", "assay": "MTT viability assay", "assay_type": "cell-based, human", "conditions": "Ad.mda-7 100 p.f.u./cell", "method": "(§3) MTT Viability Assays. Cell viability was assessed by MTT assays as described (Lebedeva et al., 2000, Cancer Research 60:6052-6060). Briefly, cells were seeded in 96-well tissue culture plates (1.5×10^3 cells per well) and treated with various agents. At the indicated times, medium was removed, and fresh medium containing 0.5 mg/ml MTT was added to each well. The cells were incubated at 37° C. for 4 h and then an equal volume of solubilization solution (0.01N HCl in 10% SDS) was added to each well and mixed thoroughly. The optical density from the plates was read on a BioRad Microplate Reader Model 550 at 595 nm."}, "[4]": {"tested_on": "normal cells (immortalized human astrocytes or melanocytes)", "assay": "MTT viability assay", "assay_type": "cell-based", "conditions": "Ad.mda-7 100 p.f.u./cell", "method": "as §3"}, "[5]": {"tested_on": "pancreatic carcinoma cells", "assay": "Apoptosis (annexin V exposure, hypodiploid A0 cells)", "assay_type": "cell-based, human", "conditions": "annexin V exposure and A0 population", "description": "FIG. 39. Combined treatment of pancreatic carcinoma cells by NSC656240 and Ad.mda-7 increases levels of annexin V in pancreatic cancer cells irrespective of K-ras status.\nFIG. 40. NAC administration prevents the apoptosis of pancreatic cancer cells induced by treatment of pancreatic carcinoma cells by NSC656240 or Ar2O3 and Ad.mda-7.\nFIG. 41. Combined treatment of pancreatic carcinoma cells by NSC656240 or Ar2O3 and Ad.mda-7 causes apoptosis irrespective of K-ras status.\nAnnexin V Binding Assays. Cells were trypsinized, washed once with complete medium and stained with FITC-labeled Annexin-V (kit from Oncogene Research Products, Boston, Mass.) according to the manufacturer's instructions. Flow cytometry was performed immediately after staining.\nCell Cycle Analysis. Cells were trypsinized, washed 2× with PBS and fixed in 70% ethanol overnight at −20° C. Then cells were washed 2 times with PBS, and aliquots of 1×10^6 cells were resuspended in 1 ml of PBS containing 1 mg/ml of RNase A and 0.5 mg/ml of propidium iodide. After 30 min incubation, cells were analyzed by flow cytometry using a FACScan flow cytometer (Becton Dickinson, San Jose, Calif.)."}, "[6]": {"tested_on": "pancreatic cancer cell lines", "assay": "Western blotting of K-ras and MDA-7 protein", "assay_type": "cell-based, human", "description": "FIG. 43. MDA-7 expression in pancreatic cancer cell lines in the presence or absence of Ad.mda-7, Ad.K-rasAS, or NSC656243. The presence of MDA-7 in mutant K-ras cell lines requires expression of both mda-7 and the antisense K-ras construct, and is potentiated by NSC656243.\nFIG. 45. The MDA-7 expression observed in the PANC-1 or BxPC-3 cell lines following administration of Ad.mda-7 in combination with either NSC656240 or Ar2O3 is abrogated by NAC administration.\nPreparation of Cell Extracts and Western Blotting Analysis. Cells were washed 2× with cold PBS and lysed on ice for 30 min in […] of cold RIPA buffer [50 mM Tris-HCl (pH 8.0), 150 mM NaCl, 0.1% SDS, 1% NP40, and 0.5% sodium deoxycholate] with freshly added 0.1 mg/ml phenylmethylsulfonyl fluoride, 1 mM sodium orthovanadate, and 1 mg/ml aprotinin. After cell debris were removed by centrifugation at 14,000 g for 10 min at 4° C., protein concentrations were determined using the Bio-Rad protein assay system (Bio-Rad Laboratories, Richmond, Calif.). Aliquots of cell extracts containing […] of total protein were resolved in 12% SDS-PAGE and transferred to Immobilon-P PVDF membranes (Millipore Corp., Bedford, Mass.). Filters were blocked for 1 h at room temperature in Blotto A [5% nonfat milk powder in TBS-T: 10 mM Tris-HCl (pH 8.0), 150 mM NaCl, 0.05% Tween 20], and then incubated for 1 h at room temperature in Blotto A containing a 1:1000 dilution of rabbit anti MDA-7 polyclonal antibody. After washing in TBS-T buffer (3×5 min, RT), filters were incubated for 1 h at room temperature in Blotto A containing a 1:10,000 dilution of peroxidase conjugated anti-rabbit secondary antibody (Amersham, Arlington Heights, Ill.). After washing in TBS-T, ECL was performed according to the manufacturer's recommendation."}, "[7]": {"tested_on": "pancreatic carcinoma cells", "assay": "ROS production (flow cytometry)", "assay_type": "cell-based, human", "method": "FIG. 46. Combined treatment by NSC656240 or Ar2O3 and Ad.mda-7 causes overproduction of ROS in pancreatic carcinoma cells.\nAssessment of ROS Production. To determine ROS production, cells were stained with 2.5 μM HE or 5 μM DCFH-DA in PBS for 30 min at 37° C. in the dark. Immediately after staining, cells were analyzed by flow cytometry (FACSscan, Becton-Dickinson, Mountain View, Calif.), and data were analyzed using CellQuest software, version 3.1 (Becton Dickinson). For inhibition experiments, NAC (Sigma) was added 2 h prior to infection with Ad.mda-7. In all cases, cells were gated to exclude cell debris."}, "[8]": {"tested_on": "pancreatic cancer cells stably transformed to express MDA-7", "assay": "Apoptosis and cell death in cells stably expressing MDA-7", "assay_type": "cell-based, human", "description": "FIG. 49. Induction of apoptosis in pancreatic cancer cell lines (PANC-1) stably expressing MDA-7.\nFIG. 50. Induction of apoptosis in pancreatic cancer cell lines (Mia PaCa-2) stably expressing MDA-7.\nFIG. 51. Induction of apoptosis in pancreatic cancer cell lines (FM516 or BxPC-3) stably expressing MDA-7."}, "RT2 cells": {"tested_on": "RT2 cells", "assay": "MTT assay with kinase inhibitors", "assay_type": "cell-based, rat", "quoted_text": "Data are the means±SEM of 3 experiments # p<0.05 less than control treated cells, * p<0.05 less than corresponding value in cells not infected with Ad-mda-7. Panel C. […] Data are the means±SEM of 3 separate experiments. […] Data are the means±SEM of 3 separate experiments. […] Cells were incubated with vehicle or SP600125 (10 μM) 30 min prior to irradiation and growth determined via MTT assay 4 days after irradiation (±SEM, n=4).\nThe MTT test is based on the enzymatic reduction of the tetrazolium salt MTT in living, metabolically active cells. […] Twenty-four hours after infection/protein treatment, cells were treated with kinase inhibitor drugs and then irradiated. […] The plates were read on a Dynatech MR600 Microplate Reader at 540 nm. All data were normalized relative to the control, non-treated unirradiated cells of the corresponding cell type."}, "[9]": {"tested_on": "normal immortal P69 prostate epithelial cells", "assay": "MTT viability assay", "assay_type": "cell-based, human", "conditions": "PK11195 50 μM", "method": "as §1, §2\nMTT Viability Assays. […] The optical density from the plates was read on a BioRad Microplate Reader Model 550 at 595 nm."}}, "note": "Peptide text beside a SMILES is read from it. * marks the point of attachment. Cbz = O=C(OCc1ccccc1)*; CH2F = FC*", "data": [{"smiles": "CC1=C(/C=C/C(C)=C/C=C/C(C)=C/C(=O)Nc2ccc(O)cc2)C(C)(C)CCC1", "note": "[4-HPR, N-(4-hydroxyphenyl) retinamide]", "values": [{"measurement": "effect of 4-HPR on toxic effects of MDA-7 expression", "setting": "SKOV3 cells", "result": "potentiated the toxic effects of MDA-7 expression"}]}, {"smiles": "CO[C@H](C/C=C\\C=C\\CC/C=C/C[C@H](C)/C=C/C(=C\\C(=O)O)CC(=O)O)/C(C)=C\\C=C(/C)C(=O)O", "note": "[BA, bongkrekic acid]", "values": [{"measurement": "effect of MPT inhibitor on cell death of Ad.mda-7-infected cells", "setting": "[1]; CsA (200 nM), BA (50 μM) pretreatment 2 h", "result": "prevented cell death"}, {"measurement": "effect on Ad.mda-7-induced decline in ΔΨm", "setting": "[2]", "result": "abrogated the decline in ΔΨm"}]}, {"smiles": "O=C1c2ccsc2C(=O)c2sc(CO)cc21", "note": "[NSC656240]", "values": [{"measurement": "effect of ROS-producing agent on cell death of Ad.mda-7-infected cells", "setting": "[1]; As2O3 10 μM, NSC656240 400 nM, 48 h", "result": "potentiated cell death"}, {"measurement": "ROS levels", "setting": "prostate carcinoma cells", "result": "ROS levels increased proportionally"}, {"measurement": "cell death, combinational treatment with Ad.mda-7", "setting": "[3]", "result": "caused death of these cells irrespective of their K-ras status"}, {"measurement": "growth, combinational treatment with Ad.mda-7", "setting": "[4]", "result": "does not affect growth of normal cells"}, {"measurement": "apoptosis, combination treatment with Ad.mda-7", "setting": "[5]", "result": "caused apoptosis in pancreatic carcinoma cells independently of their K-ras status"}, {"measurement": "K-ras protein expression", "setting": "[6]; alone or in combination with Ad.mda-7", "result": "does not down-regulate K-ras protein expression"}, {"measurement": "MDA-7 protein expression and secretion, combined treatment with Ad.mda-7", "setting": "[6]; wt and mutated K-ras pancreatic cancer cell lines", "result": "leads to MDA-7 protein expression and secretion"}, {"measurement": "ROS production, combined treatment with Ad.mda-7", "setting": "[7]", "result": "Caused ROS overproduction"}, {"measurement": "apoptosis and cell death", "setting": "[8]", "result": "caused apoptosis and cell death"}]}, {"smiles": "COc1cccc(-c2cc(=O)c3ccccc3o2)c1N", "note": "[PD98059]", "values": [{"measurement": "effect of combined MEK1/2 and PI3K inhibition on proliferation of Ad.mda-7 infected cells", "setting": "RT2 cells; 10 μm PD98059 + 5 μm LY294002", "result": "significant additional reduction in proliferation"}, {"measurement": "effect of single kinase inhibitor on anti-proliferative effects of Ad.mda-7", "setting": "RT2 cells; 10 μm PD98059 or 5 μm LY294002", "result": "neither MEK1/2 nor PI3K enhanced the anti-proliferative effects"}]}, {"smiles": "CCC(C)N(C)C(=O)c1cc2ccccc2c(-c2ccccc2Cl)n1", "note": "(stereo not drawn) [PK11195]", "values": [{"measurement": "effect of PK11195 on Ad.mda-7-induced killing", "setting": "[1]; PK11195 50 μM", "result": "enhanced Ad.mda-7-induced killing"}, {"measurement": "effect of PK11195 on MPT, annexin V staining and killing", "setting": "[9]", "result": "without inducing any of these changes in P69 cells"}]}, {"smiles": "O=S(=O)(O)c1cc(O)c(O)c(S(=O)(=O)O)c1", "note": "[Tiron]", "values": [{"measurement": "effect of antioxidant on cell death promoting activity of Ad.mda-7", "setting": "[1]; NAC 5 mM, Tiron 1 mM, 48 h", "result": "abrogated"}]}, {"smiles": "COC(=O)C[C@H](NC(=O)[C@H](C)NC(=O)[C@@H](NC(=O)OCc1ccccc1)C(C)C)C(=O)CF", "note": "[z-VAD.fmk] (Cbz-Val-Ala-Asp(OMe)-CH2F)", "values": [{"measurement": "effect of z-VAD.fmk on cell death", "setting": "[1]; z-VAD.fmk 50 μM", "result": "inhibited cell death"}]}]}
